Assay results as given in article PMC11228576 (RSC Advances, 2024).
Like-named read-outs stand apart in the source and are kept apart here.

What was measured:
bovine erythrocyte CA-II [1] = target: T1, bovine erythrocyte CA-II (Bos taurus, UniProt P00921); assay: CA-II in vitro inhibition assay; type: biochemical; details: for Percent inhibition (0.5 mM): compound at 0.5 mM; for inhibition at 500 µM: read-out: Percent inhibition (0.5 mM)
bovine erythrocyte CA-II [2] = target: T1, bovine erythrocyte CA-II; assay: Enzyme kinetics study of CA-II inhibition; type: biochemical
[3] = read-out: IC50 ± μM (SEM), bovine CA-II, triplicate, SEM

T1 sequence (P00921 whole entry): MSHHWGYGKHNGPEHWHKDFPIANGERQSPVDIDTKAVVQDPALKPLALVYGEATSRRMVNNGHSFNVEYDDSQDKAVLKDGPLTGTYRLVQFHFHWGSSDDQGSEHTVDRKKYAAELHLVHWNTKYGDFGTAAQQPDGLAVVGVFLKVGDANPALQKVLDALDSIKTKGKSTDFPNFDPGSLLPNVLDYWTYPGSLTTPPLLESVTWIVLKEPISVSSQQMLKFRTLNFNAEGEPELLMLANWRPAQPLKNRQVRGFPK

SMILES | Percent inhibition (0.5 mM) (bovine erythrocyte CA-II [1]; bovine CA-II) [%] | IC50 (bovine erythrocyte CA-II [1]; [3]) [µM] | IC50 (bovine erythrocyte CA-II [1]) [µM] | inhibition at 500 µM (bovine erythrocyte CA-II [1]) [%] | Ki (bovine erythrocyte CA-II [2]) [µM] | type of inhibition (bovine erythrocyte CA-II [2]; bovine CA-II, Lineweaver–Burk plot)
COc1ccc(-n2c(-c3ccc(Cl)cc3)cs/c2=N/N=C/c2ccc(N3CCOCC3)cc2)cc1 [Compound 19, 4-{4-[(E)-{[(E)-4-(4-chlorophenyl)-3-(4-methoxyphenyl)thiazol-2(3H)-ylidene] hydrazone}methyl]phenyl}morpholine] | 70.35 | 48.2 ± 1.19 | – | – | – | –
Cc1ccc(Cn2c(-c3ccc(Cl)cc3)cs/c2=N/N=C/c2ccc(N3CCOCC3)cc2)cc1 [Compound 16, 4-{4-[(E)-{[(E)-4-(4-chlorophenyl)-3-(4-methylbenzyl)thiazol-2(3H)-ylidene]hydrazone}methyl]phenyl}morpholine] | 70.20 | 56.3 ± 1.4 | – | – | – | –
O=[N+]([O-])c1ccc(-c2cs/c(=N/N=C/c3ccc(N4CCOCC4)cc3)n2CCN2CCOCC2)cc1 [Compound 24, 4-{2-[(E)-2-{[(E)-4-morpholinobenzylidene]hydrazineylidene}-4-(4-nitrophenyl)thiazol-3(2H)-yl]ethyl}morpholine] | – | – | 14.7 ± 0.29 | 90.2 | 9.64 ± 0.007 | competitive type of inhibition
Clc1ccc(-c2cs/c(=N/N=C/c3ccc(N4CCOCC4)cc3)n2CCc2ccccc2)cc1 [Compound 15, 4-{4-[(E)-{[(E)-4-(4-chlorophenyl)-3-phenethylthiazol-2(3H)-ylidene]hydrazone}methyl]phenyl}morpholine] | 75.36 | 49.3 ± 1.35 | – | – | – | –
Cc1cccc(C)c1-n1c(-c2ccc(Cl)cc2)cs/c1=N/N=C/c1ccc(N2CCOCC2)cc1 [Compound 21, 4-{4-[(E)-{[(E)-4-(4-chlorophenyl)-3-(2,6-dimethylphenyl)thiazol-2(3H)-ylidene]hydrazone}methyl]phenyl}morpholine] | 81.46 | 38.6 ± 0.48 | – | – | – | –
C(=N\N=c1\scc(-c2ccccc2)n1Cc1ccccc1)/c1ccc(N2CCOCC2)cc1 [Compound 5, 4-{4-[(E)-{[(E)-3-benzyl-4-phenylthiazol-2(3H)-ylidene] hydrazone}methyl]phenyl} morpholine] | 86.61 | 26.5 ± 0.68 | – | – | – | –
C(=N\N=c1\scc(-c2ccccc2)n1-c1cccc2ccccc12)/c1ccc(N2CCOCC2)cc1 [Compound 10, 4-{4-[(E)-{[(E)-3-(naphthalen-1-yl)-4-phenylthiazol-2(3H)-ylidene] hydrazone}methyl]phenyl} morpholine] | 80.20 | 39.7 ± 1.41 | – | – | – | –
Cc1cccc(C)c1-n1c(-c2ccc([N+](=O)[O-])cc2)cs/c1=N/N=C/c1ccc(N2CCOCC2)cc1 [Compound 26, 4-{4-[(E)-{[(E)-3-(2,6-dimethylphenyl)-4-(4-nitrophenyl)thiazol-2(3H)ylidene] hydrazone}methyl]phenyl}morpholine] | 89.76 | 17.2 ± 0.36 | – | – | – | –
Clc1ccc(-c2cs/c(=N/N=C/c3ccc(N4CCOCC4)cc3)n2Cc2ccccc2)cc1 [Compound 14, 4-{4-[(E)-{[(E)-3-benzyl-4-(4-chlorophenyl)thiazol-2(3H)-ylidene]hydrazone}methyl]phenyl}morpholine] | 80.69 | 35.4 ± 0.64 | – | – | – | –
O=[N+]([O-])c1cccc(-n2c(-c3ccccc3)cs/c2=N/N=C/c2ccc(N3CCOCC3)cc2)c1 [Compound 8, 4-{4-[(E)-{[(E)-3-(3-nitrophenyl)-4-phenylthiazol-2(3H)-ylidene] hydrazone}methyl]phenyl} morpholine] | 83.11 | 27.4 ± 0.47 | – | – | – | –
C(=N\N=c1\scc(-c2ccccc2)n1CCN1CCOCC1)/c1ccc(N2CCOCC2)cc1 [Compound 7, 4-{2-[(E)-2-{[(E)-4-morpholinobenzylidene]hydrazineylidene}-4-phenylthiazol-3(2H)-yl]ethyl}morpholine] | – | – | 37.2 ± 1.37 | 80.9 | – | –

Results, then the compound that gave them:

Percent inhibition (0.5 mM) (bovine erythrocyte CA-II [1]; bovine CA-II) [%] | IC50 (bovine erythrocyte CA-II [1]; [3]) [µM] | IC50 (bovine erythrocyte CA-II [1]) [µM] | inhibition at 500 µM (bovine erythrocyte CA-II [1]) [%] | Ki (bovine erythrocyte CA-II [2]) [µM] | type of inhibition (bovine erythrocyte CA-II [2]; bovine CA-II, Lineweaver–Burk plot) | SMILES
84.95 | 23.8 ± 0.44 | – | – | – | – | Brc1ccc(-c2cs/c(=N/N=C/c3ccc(N4CCOCC4)cc3)n2-c2ccccc2)cc1 [Compound 27, 4-{4-[(E)-{[(E)-4-(4-bromophenyl)-3-phenylthiazol-2(3H)-ylidene]hydrazone}methyl]phenyl}morpholine]
88.69 | 16.5 ± 0.4 | – | – | – | – | COc1ccc(-n2c(-c3ccc([N+](=O)[O-])cc3)cs/c2=N/N=C/c2ccc(N3CCOCC3)cc2)cc1 [Compound 25, 4-{4-[(E)-{[(E)-3-(4-methoxyphenyl)-4-(4-nitrophenyl)thiazol-2(3H)-ylidene]hydrazone}methyl]phenyl}morpholine]
– | – | 51.2 ± 1.26 | 71.2 | – | – | Clc1ccc(-c2cs/c(=N/N=C/c3ccc(N4CCOCC4)cc3)n2CCN2CCOCC2)cc1 [Compound 17, 4-{2-[(E)-2-{[(E)-4-morpholinobenzylidene]hydrazineylidene}-4-(4-chlorophenyl)thiazol-3(2H)-yl]ethyl}morpholine]
84.29 | 34.6 ± 1.1 | – | – | – | – | C(=N\N=c1\scc(-c2ccccc2)n1CCc1ccccc1)/c1ccc(N2CCOCC2)cc1 [Compound 6, 4-{4-[(E)-{[(E)-3-phenethyl-4-phenylthiazol-2(3H)-ylidene]hydrazone}methyl]phenyl} morpholine]
86.44 | 30.2 ± 0.59 | – | – | – | – | C(=N\N=c1\scc(-c2ccccc2)n1C1CCCCC1)/c1ccc(N2CCOCC2)cc1 [Compound 3, 4-{4-[(E)-{[(E)-3-cyclohexyl-4-phenylthiazol-2(3H)-ylidene]hydrazone}methyl]phenyl} morpholine]
